Reference: patent publication US20220142955A1, “METHODS OF TREATING ORGANIC ACIDEMIAS” (HemoShear Therapeutics, Inc., priority 2019, published 2022)
Where two headings read alike, the source gives them in different places.

Tests used:
[1] = test system: primary hepatocytes of methylmalonic acidemia patients; experiment: Propionyl-CoA and methylmalonyl-CoA from various sources in MMA primary hepatocytes (Examples 4, 5); assay type: cell-based, human; settings: Homo sapiens, Hepatocyte
Protocol: (§1) Primary hepatocytes isolated from livers of methylmalonic acidemia patients are treated with increasing doses of compound 1 (0, 1, 3, 10, 30, 100, 300, 1000 μM) for 30 minutes. […] At the end of the challenge period, media is removed and the cells are lysed with 70% MCCN and 0.1% TFA containing 100 μM of ethymalonyl-CoA as an internal standard and harvested. Cell lysates are processed for HTMS/MS analysis.
as §1, with “compound 5” for “compound 1”, “(0, 0.1, 0.3,” for “(0,”, “30, 100” for “30, 100, 300, 1000”, “30 min.” for “30 minutes.”, “70% MeCN” for “70% MCCN”

[2] = clinical; parameters: species or system human; settings: in vivo; for AUC / Cmax: human
Protocol: In some embodiments, the method entails administering 2,2-dimethylbutyric acid, or a CoA ester or carnitine ester thereof, or a pharmaceutically acceptable salt, ester, or solvate thereof, at a concentration ranging from about, including about […] to 50 mg/kg.

[3] = test system: MMA primary hepatocytes; experiment: Static cell culture, low/high propiogenic media, MMA primary hepatocytes; assay type: cell-based, human; settings: MMA pHeps; for EC50 / EC90: Homo sapiens, Hepatocyte
Protocol: Unlike the HemoShear Technology, this assay is carried out without constant perfusion, utilizing cell culture media that was customized to mimic plasma levels of propiogenic sources (amino acids and ketoacids) in PA and MMA patients during periods of relative metabolic stability (low propiogenic media) and acute metabolic crisis (high propiogenic media). PA and MMA pHeps, in static cell culture, were treated with Compound 5 (concentrations ranging from 0.1 μM to 100 μM) for 30 minutes in low propiogenic media, followed by either a continuation of low propiogenic media or a switch to the high propiogenic media for 1 hour. The media used during the 1-hour incubation contained propiogenic SIL amino acids and ketoacids which are metabolized into labeled P-CoA and M-CoA in the cells. The SIL amino acids and ketoacids were a mix of ^13C and MeD8 labelling, but their catabolism produced a SIL P-CoA (denoted as ^13C-P-CoA for simplicity) with the same mass, independent of the type of SIL (also true for ^13C-M-CoA).

[4] = test system: normal primary hepatocytes; experiment: HemoShear Technology, normal primary hepatocytes (Example 11); assay type: cell-based, human; settings: Normal pHeps
[5] = test system: primary hepatocytes of propionic acidemia patients; experiment: Propionyl-CoA from various sources in PA primary hepatocytes (Examples 2, 3); assay type: cell-based, human; settings: Homo sapiens, Hepatocyte, read-out: concentration of propionyl-CoA EC50
Protocol: Primary hepatocytes isolated from livers of propionic acidemia patients are treated with increasing doses of compound 1 (0, 1, 3, 10, 30, 100, 300, 1000 μM) for 30 min. After 30 min the cells are challenged with the different sources of P-CoA, which may include ^13C-ketoisovaleric acid (KIVA) (1 mM), […] (ILE) (3 mM), ^13C-threonine (THR) (5 mM), ^13C-methionine (MET) (5 mM), ^13C-heptanoate (100 μM), or ^13C-propionate (5 mM) for 60 minutes. At the end of the challenge period, media is removed and the cells are lysed with 70% MeCN and 0.1% TFA containing 100 μM of ethymalonyl-CoA as an internal standard and harvested. Cell lysates are processed for HTMS/MS analysis.
Primary hepatocytes isolated from livers of propionic acidemia patients are treated with increasing doses of compound 5 (0, 0.1, 0.3, 1, 3, 10, 30, 100 μM) for 30 minutes. After 30 minutes the cells are challenged with the different sources of P-CoA, which may include ^13C-KIVA (1 mM), ^13C-isoleucine (3 mM), ^13C-threonine (5 mM), ^13C-methionine (5 mM), ^13C-heptanoate (100 μM), or ^13C-propionate (5 mM) for 60 minutes. At the end of the challenge period, media is removed and the cells are lysed with 70% MeCN and 0.1% TFA containing 100 μM of ethymalonyl-CoA as an internal standard and harvested. Cell lysates are processed for HTMS/MS analysis.

[6] = high propiogenic, static culture
[7] = low propiogenic, static culture

Q: With CCC(C)(C)C(=O)O [Compound 5, 2,2-dimethybutanoic acid] as the compound, how does the EC50 ([1]; 100 μM 13C-heptanoate, read-out: concentration of methylmalonyl-CoA EC50) read?
A: Its EC50 is 0.02 µM.

Q: And the EC50 ([1]; 100 μM 13C-heptanoate, read-out: concentration of propionyl-CoA EC50)?
A: The EC50 was 3.84 µM.

Q: And the EC50 ([1]; 1 mM 13C-KIVA, read-out: concentration of methylmalonyl-CoA EC50)?
A: The EC50 was 1.17 µM.

Q: And the EC50 ([1]; 1 mM 13C-KIVA, read-out: concentration of propionyl-CoA EC50)?
A: Its EC50 is 0.93 µM.

Q: And the EC50 ([1]; 3 mM 13C-ILE, read-out: concentration of methylmalonyl-CoA EC50)?
A: Its EC50 is 1.38 µM.

Q: And the EC50 ([1]; 3 mM 13C-ILE, read-out: concentration of propionyl-CoA EC50)?
A: Its EC50 is 2.04 µM.

Q: And the AUC ([2]; 30 mg/kg)?
A: The AUC was 2180 µg·h/mL.

Q: What about the Cmax ([2]; 30 mg/kg) of the same compound?
A: The Cmax was 156 µg/mL.

Q: What about the AUC ([2]; 40 mg/kg) of the same compound?
A: The AUC was 2620 µg·h/mL.

Q: And the Cmax ([2]; 40 mg/kg)?
A: Its Cmax is 203 µg/mL.

Q: And the AUC ([2]; 50 mg/kg)?
A: Its AUC is 3200 µg·h/mL.

Q: And the Cmax ([2]; 50 mg/kg)?
A: Its Cmax is 256 µg/mL.

Q: And the “Blood plasma concentrations following administration (dose dependence)” value [2]?
A: Its value is “dose proportional”.

Q: And the EC50 ([3]; high propiogenic media, static, read-out: 12C-Methylmalonyl-CoA (13C-M-CoA) EC50)?
A: Its EC50 is 2.7 ± 1.6 µM.

Q: And the EC90 ([3]; high propiogenic media, static, read-out: 12C-Methylmalonyl-CoA (13C-M-CoA) EC90)?
A: The EC90 was 21.2 ± 2 µM.

Q: What about the EC50 ([3]; high propiogenic media, static, read-out: 13C-Methymalonic acid EC50) of the same compound?
A: Its EC50 is 1.1 ± 0.9 µM.

Q: And the EC90 ([3]; high propiogenic media, static, read-out: 13C-Methymalonic acid EC90)?
A: The EC90 was 4.6 ± 3 µM.

Q: And the EC50 ([3]; high propiogenic media, static, read-out: 13C-Propionyl-CoA (13C-P-CoA) EC50)?
A: Its EC50 is 1.6 ± 0.8 µM.

Q: And the EC90 ([3]; high propiogenic media, static, read-out: 13C-Propionyl-CoA (13C-P-CoA) EC90)?
A: Its EC90 is 48.2 ± 47.5 µM.

Q: And the EC50 ([3]; high propiogenic, static culture, read-out: 12C-Acetyl-CoA EC50)?
A: Its EC50 is 1.4 ± 1.4 µM.

Q: What about the EC90 ([3]; high propiogenic, static culture, read-out: 12C-Acetyl-CoA EC90) of the same compound?
A: Its EC90 is 6.4 ± 7.1 µM.

Q: What about the EC50 ([3]; high propiogenic, static culture, read-out: CoASH EC50) of the same compound?
A: Its EC50 is 13.1 ± 14.8 µM.

Q: And the EC90 ([3]; high propiogenic, static culture, read-out: CoASH EC90)?
A: The EC90 was 65.6 ± 81.2 µM.

Q: What about the EC50 ([3]; high propiogenic, static culture, read-out: Compound 5-CoA (formation) EC50) of the same compound?
A: The EC50 was 5.4 ± 2.8 µM.

Q: And the EC90 ([3]; high propiogenic, static culture, read-out: Compound 5-CoA (formation) EC90)?
A: Its EC90 is 80.1 ± 57 µM.

Q: And the EC50 ([3]; low propiogenic media, static, read-out: 12C-Methylmalonyl-CoA (13C-M-CoA) EC50)?
A: Its EC50 is 2.9 ± 1.6 µM.

Q: And the EC90 ([3]; low propiogenic media, static, read-out: 12C-Methylmalonyl-CoA (13C-M-CoA) EC90)?
A: Its EC90 is 30.9 ± 16.2 µM.

Q: What about the EC50 ([3]; low propiogenic media, static, read-out: 13C-Methymalonic acid EC50) of the same compound?
A: Its EC50 is 1.2 ± 1.3 µM.

Q: And the EC90 ([3]; low propiogenic media, static, read-out: 13C-Methymalonic acid EC90)?
A: The EC90 was 5.2 ± 3.3 µM.

Q: And the EC50 ([3]; low propiogenic media, static, read-out: 13C-Propionyl-CoA (13C-P-CoA) EC50)?
A: The EC50 was 1.3 ± 0.6 µM.

Q: And the EC90 ([3]; low propiogenic media, static, read-out: 13C-Propionyl-CoA (13C-P-CoA) EC90)?
A: Its EC90 is 15.7 ± 18 µM.

Q: And the EC50 ([3]; low propiogenic, static culture, read-out: 12C-Acetyl-CoA EC50)?
A: The EC50 was 2.5 ± 2.6 µM.

Q: What about the EC90 ([3]; low propiogenic, static culture, read-out: 12C-Acetyl-CoA EC90) of the same compound?
A: The EC90 was 28.4 ± 52 µM.

Q: What about the EC50 ([3]; low propiogenic, static culture, read-out: CoASH EC50) of the same compound?
A: The EC50 was 2.3 ± 1.6 µM.

Q: And the EC90 ([3]; low propiogenic, static culture, read-out: CoASH EC90)?
A: Its EC90 is 14.2 ± 13.5 µM.

Q: And the EC50 ([3]; low propiogenic, static culture, read-out: Compound 5-CoA (formation) EC50)?
A: Its EC50 is 2 ± 0.7 µM.

Q: And the EC90 ([3]; low propiogenic, static culture, read-out: Compound 5-CoA (formation) EC90)?
A: The EC90 was 18 ± 15.7 µM.

Q: What about the “12C-Methylmalonyl-CoA (13C-M-CoA) % change at 30 μM” value ([3]; high propiogenic media, static) of the same compound?
A: Its value is −73±5.8%.

Q: And the “13C-Methymalonic acid % change at 30 μM” value ([3]; high propiogenic media, static)?
A: Its value is −91 ± 4%.

Q: And the “13C-Propionyl-CoA (13C-P-CoA) % change at 30 μM” value ([3]; high propiogenic media, static)?
A: The value was −75.9±7.3%.

Q: And the “12C-Acetyl-CoA Percent change (30 μM)” value [3, 6]?
A: The value was −14.6 ± 12.6%.

Q: What about the “CoASH Percent change (30 μM)” value [3, 6] of the same compound?
A: The value was −28.7 ± 7.3%.

Q: What about the “12C-Methylmalonyl-CoA (13C-M-CoA) % change at 30 μM” value ([3]; low propiogenic media, static) of the same compound?
A: Its value is −76.5±13.2%.

Q: What about the “13C-Methymalonic acid % change at 30 μM” value ([3]; low propiogenic media, static) of the same compound?
A: Its value is −83.2 ± 5%.

Q: What about the “13C-Propionyl-CoA (13C-P-CoA) % change at 30 μM” value ([3]; low propiogenic media, static) of the same compound?
A: Its value is −77.6±9.8%.

Q: What about the “12C-Acetyl-CoA Percent change (30 μM)” value [3, 7] of the same compound?
A: Its value is −35.5 ± 18.1%.

Q: And the “CoASH Percent change (30 μM)” value [3, 7]?
A: Its value is −47.7 ± 13.4%.

Q: And the EC50 ([4]; Homo sapiens, Hepatocyte, read-out: Compound 5-CoA (formation) EC50)?
A: Its EC50 is 8.3 ± 8 µM.

Q: What about the EC90 ([4]; Homo sapiens, Hepatocyte, read-out: Compound 5-CoA (formation) EC90) of the same compound?
A: Its EC90 is 26.1 ± 3.1 µM.

Q: And the “12C-Acetyl-CoA Percent change at 30 μM” value [4]?
A: The value was 20 ± 2.9%.

Q: What about the “CoASH Percent change at 30 μM” value [4] of the same compound?
A: Its value is −35.2 ± 3%.

Q: What about the EC50 ([5]; 1 mM 13C-KIVA) of the same compound?
A: Its EC50 is 0.89 µM.

Q: What about the EC50 ([5]; 3 mM 13C-ILE) of the same compound?
A: The EC50 was 0.42 µM.

Q: What about the EC50 ([5]; 5 mM 13C-THR) of the same compound?
A: Its EC50 is 1.24 µM.

Q: What about the EC50 ([5]; 5 mM 13C-propionate) of the same compound?
A: Its EC50 is 15.3 µM.
